Experimental data taken from US20070056049A1, “p53 and VEGF regulate tumor growth of NOS2 expressing cancer cells” (The Govt. of the USA as represented by the Secretary of the …, priority 1998, published 2007).
Entries after “also recorded” stand apart in the source; their conditions may differ.

What was measured:
[1] = tested on: VEGF secretion of NOS2-expressing Calu-6 cells; experiment: VEGF secretion into culture medium of NOS2-expressing Calu-6 cell clones (immunoprecipitation, western blot); type: cell-based, human; details: 2 mM L-NMA, 48 hr, 3×10^6 cells in 4 ml of medium
Procedure: FIG. 7a-b: VEGF protein concentrations are higher (4.3 and 7.1-fold) in the culture medium of NOS2-expressing Calu-6 cells clones than in the culture medium of vector controls (A) and correlate with increased VEGF mRNA expression (B). […] 3×10^6 cells were cultured in 4 ml of medium for 48 hr±2 mM L-NMA. VEGF was immunoprecipitated out of 1 ml of culture medium. The 4.4 kb VEGF mRNA was detected by northern blotting was a 522 bp ^32P-labeled cDNA (exon 1-7), and the 7.5 kb polycistronic mRNA encoding NOS2 with the full-length human NOS2 cDNA (Geller et al., Proc. Natl. Acad. Sci. U.S.A. 90:3491-3495 (1993); Tzeng et al., Proc. Nat'l Acad. Sci USA 92:11771-11775 (1995)).
NOS2 and VEGF western blot analysis: Cell lysates for western blotting were prepared by solubilization of cell pellets in RIPA butter. VEGF protein concentrations were determined as follows. Five μg of rabbit polyclonal anti-VEGF antibody (Santa Cruz Biotechnology) were added to either 1 mg of cellular protein extract or 1 ml of cell culture medium, incubated for 1 hr at 8-10° C., and then mixed with protein A-sepharose (10 mg) for 1 hr. […] After transfer to an Immunobilon-P membrane (Millipore), NOS2 and VEGF protein were detected with either a polyclonal anti-NOS2 antibody (Merck), 1:40,000 diluted, or a polyclonal anti-VEGF, 1:1000 diluted, as described (Ambs et al., Cancer Res. 58:334-341 (1998)).

[2] = tested on: NOS2-expressing Calu-6 cells; experiment: Tumor xenoplantation of NOS2-expressing Calu-6 cells in athymic nude mice; type: in vivo; details: 1% AG; p53 null Calu-6 cells, subcutaneous tumors; p<0.05, two-tailed Student's t-test
Source text: (§1) FIG. 2a-d: Tumor probability of NOS2-expressing human carcinoma cells lines is dependent on the p53 status. 3×10^6 cells of NOS2-expressing Calu-6 and LoVo carcinoma cells, and the vector controls (BaglacZ), were inoculated into 10 athymic nude mice, respectively. NOS2-expressing LoVo cells, which have two wild-type p53 alleles, grow slower (A) and produce smaller tumors (C) than vector controls (BaglacZ). In contrast, NOS2-expressing Calu-6 cells, which lack expression of functional p53, grow faster (B) and produce larger tumors (D) than the vector controls.
(§2) A. Methods Tumor xenoplantation: Suspensions of 3×10^5 to 5×10^6 cells in a volume of 0.2 ml were injected at a single subcutaneous site into athymic nude mice previously irradiated with 350 rads. Either 10 or 20 animals were injected per experiment. A nodule was scored as a tumor when it measured 125 mm^3 or more by its largest two dimensions.
(§3) Statistical Analysis: The Kaplan-Meier survival analysis was used to calculate the statistical significance of tumor probabilities in different treatment groups. Other comparisons were carried out by the two-tailed Student's t-test. Relationships are considered statistically significant when p<0.05.

[3] = tested on: NOS2-expressing HT-29 colon carcinoma cells; experiment: Tumor xenoplantation of NOS2-expressing HT-29 colon carcinoma cells in athymic nude mice; type: in vivo; details: 1% AG in the drinking water; mutant p53 HT-29 cells; Kaplan-Meier analysis p=0.002
Procedure: 3×10^5 cells of NOS2 (Retro-HNOS) and β-galactosidase (BaglacZ) expressing HT-29 cells were inoculated into 40 athymic nude mice, respectively. Half of the animals in both groups received 1% AG in the drinking water. […] This effect is abolished (p=0.002) through treatment with 1% AG.
as §2, §3

[4] = tested on: NOS2-expressing LoVo cells; experiment: Tumor xenoplantation of NOS2-expressing LoVo cells in athymic nude mice; type: in vivo; details: wild-type p53 LoVo cells, slow-growing tumors
Source text: as §1, §2, §3

## CNC(=N)NCCC[C@H](N)C(=O)O [L-NMA, NG-monomethyl-L-arginine]
[1]
  VEGF secretion into the culture medium: reduced the VEGF secretion; also recorded: decreases VEGF secretion

## N=C(N)NN [aminoguanidine]
[2]
  tumor growth of NOS2-expressing Calu-6 cells: significantly reduced the tumor growth; also recorded: inhibited; also recorded: suppressed the tumor growth
[3]
  tumor probability / tumor growth of NOS2-expressing HT-29 cells: significantly reduced the tumor growth; also recorded: reverses the growth stimulatory effect of NOS2
[4]
  tumor growth of NOS2-expressing LoVo cells: lack of an aminoguanidine effect
